From US4722922A, “Tetrapeptide amides in the treatment of hypertension” (priority 1985, dated 1988)
Structures can show the parent of a compound that is named as a salt. Non-standard residues stand in square brackets, D forms with d. Residues, ends and D or L forms follow the SMILES beside them. No end group written: not given here. *: point of attachment. dTyr(3-tBu) = CC(C)(C)c1cc(C[C@@H](N)C(=O)O)ccc1O; Tyr(3-tBu) = CC(C)(C)c1cc(C[C@H](N)C(=O)O)ccc1O; dMet(O2) = CS(=O)(=O)CC[C@@H](N)C(=O)O; Sta = CC(C)C[C@H](N)[C@@H](O)CC(=O)O; Isovaleryl = CC(C)CC(=O)*; Ahx = NCCCCCC(=O)O

Tests used:
human renin = target: T1, human renin (Homo sapiens, UniProt P00797); experiment: Inhibition of Human Renin (angiotensin I formation, radioimmunoassay); assay type: biochemical; conditions: for % Inhibition: human renin test, 0.1 mGU/ml human renin, human plasma, two-hour incubation at 37° C., pH 7.5, test compound concentration not given
T1 construct: human renin, isolated from kidneys, was obtained from the World Health Organization International Laboratory for Biological Standards; tissue World Health Organization International Laboratory for Biological Standards (National Institute for Biological Standards and Control, London, England); host or cells: human kidney
T1 sequence (P00797 67-406): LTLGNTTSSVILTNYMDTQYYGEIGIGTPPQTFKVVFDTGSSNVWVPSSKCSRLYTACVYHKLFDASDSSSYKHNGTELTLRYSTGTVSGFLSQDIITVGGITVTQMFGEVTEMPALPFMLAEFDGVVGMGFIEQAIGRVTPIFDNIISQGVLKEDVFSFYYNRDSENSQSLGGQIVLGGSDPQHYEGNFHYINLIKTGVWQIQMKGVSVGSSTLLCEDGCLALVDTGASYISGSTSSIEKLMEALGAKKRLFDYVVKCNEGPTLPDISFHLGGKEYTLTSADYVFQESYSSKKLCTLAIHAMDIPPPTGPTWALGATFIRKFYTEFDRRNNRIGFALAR
Procedure: The renin inhibition activity of the compounds of this invention illustrated in the examples was tested by the following method.
Inhibition of Human Renin
International reference standard human renin, isolated from kidneys, was obtained from the World Health Organization International Laboratory for Biological Standards (National Institute for Biological Standards and Control, London, England). Renin activity is defined in "Goldblatt units" (GU), the quantity that, when injected directly into the blood stream of an unanesthetized dog, raises the direct mean femoral artery blood pressure by 30 mm Hg in about two minutes. E. Haas, L. Lewis, P. Scipione, and T. J. Koshy, Hypertension, 1, 112-117 (1979). Human angiotensinogen was used as an unisolated component of human blood plasma. The enzyme inhibition assay, see K. Poulsen, J. Burton, and E. Haber, Biochemistry, 12, 3877-3882 (1973), involved a two-hour incubation at 37° C. of the following final concentrations of reagents (0.25 ml total volume): 0.1 mGU/ml human renin; 0.05 ml human plasma; 6 mM disodium EDTA; 2.4 mM phenylmethylsulfonyl fluoride and 1.5 mM 8-hydroxyquinoline (angiotensinase inhibitors); 0.4 mg/ml bovine serum albumin; and 0.024 neomycin sulfate in 100 mM Tris-acetate buffer (pH 7.5). The enzymatic reaction was terminated by boiling the mixture for ten minutes. The quantity of angiotensin I formed was determined by radioimmunoassay, using the general method used in the angiotensin I radioimmunoassay kit of New England Nuclear.

[1] = test system: renal-ligated hypertensive rat; experiment: Renal-ligated Hypertensive Rat Assay; assay type: in vivo, Sprague Dawley rats; conditions: renal-ligated rats
Procedure: Renal-ligated Hypertensive Rat Assay
Male Sprague Dawley rats aged 11 to 15 weeks old were used in this test. […] Test compounds were administered intra-arterially at a dose of 10 mg per kg of body weight, and blood pressure changes were monitored directly at 5, 10, and 15 minutes after injection.

Row | Compound | % Inhibition (human renin) | also measured
1 | 2,4-dimethyl-3-hydroxyphenylalanyl-D-methionylglycyl-N-(6-methoxy-6-oxohexyl)-L-phenylalaninamide monohydrochloride hemihydrate [Example 77] | 73% | 
2 | COC(=O)CCCCCNC(=O)[C@H](Cc1ccccc1)NC(=O)CNC(=O)[C@@H](CCSC)NC(=O)[C@@H](N)Cc1ccc(OC(=O)OCC(C)C)c(C(C)(C)C)c1.Cl (racemic) [Example 69, O-(2-methylpropoxycarbonyl)-3-t-butyl-tyrosyl-D-methionylglycyl-N-(6-methoxy-6-oxohexyl)-L-phenylalaninamide monohydrochloride] | 43% | 
3 | COC(=O)CCCCCNC(=O)[C@H](Cc1ccccc1)NC(=O)CNC(=O)[C@@H](CCS(C)(=O)=O)NC(=O)[C@@H](N)Cc1ccc(O)c(C(C)(C)C)c1 [Example 73, 3-t-butyl-L-tyrosyl-[4-(methylsulfonyl)-D-2-aminobutanoyl]glycyl-N-(6-methoxy-6-oxohexyl)-L-phenylalaninamide monohydrochloride hemihydrate] (H-[Tyr(3-tBu)][dMet(O2)]GF[Ahx]-OMe) | 21% | 
4 | COC(=O)CCCCCNC(=O)[C@H](Cc1ccccc1)NC(=O)CNC(=O)[C@@H](CCS(C)(=O)=O)NC(=O)[C@H](N)Cc1ccc(O)c(C(C)(C)C)c1 [Example 74, 3-t-butyl-D-tyrosyl-[4-(methylsulfonyl)-D-2-aminobutanoyl]glycyl-N-(6-methoxy-6-oxohexyl)-L-phenylalaninamide monohydrochloride hemihydrate] (H-[dTyr(3-tBu)][dMet(O2)]GF[Ahx]-OMe) | 28% | 
5 | CC(C)CC(=O)N[C@H](C(=O)N[C@H](C(=O)N[C@@H](CC(C)C)[C@@H](O)CC(=O)N[C@@H](C)C(=O)N[C@@H](CC(C)C)[C@@H](O)CC(=O)O)C(C)C)C(C)C [Pepstatin] (Isovaleryl-VV[Sta]A[Sta]-OH) |  | plasma renin activity ([1]; same test conditions): significantly reduced; mean arterial blood pressure ([1]; test compounds given intra-arterially, pressure read at 5, 10 and 15 minutes after injection): significantly reduced
6 | O-(2-methylpropoxycarbonyl)-2,3,6-trimethyltyrosyl-[4-(methylsulfinyl)-D-2- aminobutanoyl]glycyl-N-(6-methoxy-6-oxohexyl)-L-phenylalaninamide monohydrochloride sesquihydrate [Example 58] | 26% | 
7 | O-(2-methylpropoxycarbonyl)-2-methyltyrosyl-D-methionylglycyl-N-(6-methoxy- 6-oxohexyl)-L-phenylalaninamide monohydrochloride hemihydrate [Example 63] | 23% | 
8 | O-(2-methylpropoxycarbonyl)-2-methyltyrosyl-[4-(methylsulfinyl)-D-2-aminobutanoyl]-glycyl-N-(6-methoxy-6-oxohexyl)-L-phenylalaninamide monohydrochloride hemihydrate [Example 64] | 22% | 
9 | O-(2-methylpropoxycarbonyl)-3-t-butyltyrosyl-[4-(methylsulfinyl)-D-2-aminobutanoyl]glycyl-N-(6-methoxy-6-oxohexyl)-L-phenylalaninamide monohydrochloride hemihydrate [Example 70] | 25% | 
10 | PHPFHLFVY [Pro-[Phe^6]octapeptide, prolylhistidylprolylphenylalanylhistidylleucylphenylalanylvalyltyrosine, reference compound] |  | activity in the human renin inhibition assay (human renin; stated in words): active
